Consider ten molecules from ChEMBL document CHEMBL1201862, “PubChem BioAssay data set” (2004).

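How tested: cells in 96-well plates exposed to compound for 48 hours at five concentrations. GI50 marks 50% less growth.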 Calls of active or inactive are those of the source. No stated cut-off is given here; in the data, active = GI50 up to about 1.1 µM and inactive = higher. Some results are limits rather than exact numbers.

Test systems include MOLT-4; UACC-257; RPMI-8226; Malme-3M; CAKI-1; PC-3; HL-60; HCT-116; K562; SNB-19; OVCAR-8; OVCAR-3; NCI-H522; ACHN; LOX IMVI; KM12; HOP-92; SF-268; HOP-62; UACC-62.
Common to all, as to test: inhibition of tumour cell growth, NCI panel, 48 h

For the molecule `C/C1=C/C(C)CC(C)OC(=O)C(C)NC(=O)C(Cc2ccc(O)c(I)c2)N(C)C(=O)CNC(=O)C(C)C1` (stereo unspecified), the GI50 was < 0.0178 µM (active) with MOLT-4; < 0.01 µM (active) in the test with UACC-257; < 0.01 µM (active) with RPMI-8226; 0.0272 µM (active) in the test on Malme-3M; < 0.01 µM (active) in the test with CAKI-1; < 0.01 µM (active) in the test with PC-3. Besides, the GI50 is < 0.01 µM (active) in the test on HL-60; < 0.01 µM (active) in the test on HCT-116; < 0.01 µM (active) with K562; 2.42 µM (inactive) with SNB-19; 0.0306 µM (active) in the test on OVCAR-8; < 0.01 µM (active) in the test on OVCAR-3. Besides, the GI50 was < 0.01 µM (active) in the test on NCI-H522; < 0.01 µM (active) with ACHN; < 0.01 µM (active) in the test on LOX IMVI; < 0.01 µM (active) in the test on KM12; < 0.0112 µM (active) in the test with HOP-92; < 0.0186 µM (active) with SF-268. Also, the GI50 in the test with HOP-62 was < 0.01 µM (active).

On to `C/C(=C\CNc1ncnc2c1ncn2CCC#N)CO`, for which the GI50 with MOLT-4, in the test with UACC-257, with RPMI-8226, in the test on Malme-3M, in the test with CAKI-1 and in the test with PC-3 was > 100 µM (inactive) each time. Further, the GI50 in the test on HL-60, in the test with HCT-116, with K562, in the test with SNB-19, in the test on OVCAR-8 and in the test on OVCAR-3 was > 100 µM (inactive) each time. Further, the GI50 in the test with NCI-H522, in the test on ACHN, in the test with LOX IMVI, in the test with KM12, in the test on HOP-92 and in the test with UACC-62 was > 100 µM (inactive) throughout. Also, the GI50 in the test with SF-268 and in the test on HOP-62 was > 100 µM (inactive) each time.

For `Cc1ccc(C(=O)/C=C2\Nc3ccccc3N=C2NC23CC4CC(CC(C4)C2)C3)cc1`, the GI50 with MOLT-4 was 7.8 µM (inactive); in the test with UACC-257 it was > 10 µM (inactive); with RPMI-8226, > 10 µM (inactive); in the test with Malme-3M, > 10 µM (inactive); in the test with CAKI-1, > 10 µM (inactive); with PC-3, > 10 µM (inactive). Besides, the GI50 in the test with HL-60, in the test with HCT-116, with K562, in the test with SNB-19, with OVCAR-8 and with OVCAR-3 was > 10 µM (inactive) each time. The GI50 in the test with NCI-H522, in the test on ACHN, in the test on LOX IMVI, in the test with KM12, in the test with HOP-92 and in the test on UACC-62 was > 10 µM (inactive) each time. For the same molecule, the GI50 in the test with SF-268 and in the test with HOP-62 was > 10 µM (inactive) throughout.

Turning to `O=[N+]([O-])c1c2nc3n(c2cc2c1nc1n2CCC1)CCC3`, the GI50 in the test with MOLT-4 was > 100 µM (inactive); with UACC-257 it was > 100 µM (inactive); with RPMI-8226, > 100 µM (inactive); in the test on Malme-3M, 93.1 µM (inactive); in the test with CAKI-1, > 100 µM (inactive); in the test with PC-3, > 100 µM (inactive). Moreover, the GI50 with HL-60, in the test with HCT-116, in the test on K562, in the test on SNB-19, in the test with OVCAR-8 and with OVCAR-3 was > 100 µM (inactive) in each case. In addition, the GI50 in the test on NCI-H522, with ACHN, in the test on LOX IMVI, in the test on KM12, in the test with HOP-92 and in the test on UACC-62 was > 100 µM (inactive) throughout. Further, the GI50 with SF-268 and in the test with HOP-62 was > 100 µM (inactive) throughout.

Regarding `CC1=C(C(=O)Nc2cccc3c2C(=O)NC3=O)CC(C(=O)Nc2cccc3c2C(=O)NC3=O)=C(C)N1`, the GI50 with MOLT-4, with UACC-257, in the test on RPMI-8226, with Malme-3M, in the test with CAKI-1 and in the test with PC-3 was > 100 µM (inactive) each time. Further, the GI50 in the test with HL-60, with HCT-116, in the test with K562, with SNB-19, with OVCAR-3 and in the test with NCI-H522 was > 100 µM (inactive) in each case. In addition, the GI50 in the test on ACHN, with LOX IMVI, with KM12, in the test on HOP-92, in the test on UACC-62 and with SF-268 was > 100 µM (inactive) in each case. In the test with HOP-62, the GI50 was > 100 µM (inactive).

With `COc1ccc(/C(Cl)=C(\C=O)c2ccc(OC)c(OC)c2)cc1OC`, the GI50 with MOLT-4 is > 100 µM (inactive); with UACC-257, 41.7 µM (inactive); in the test with RPMI-8226 it was 70.3 µM (inactive); in the test on Malme-3M it was 56.5 µM (inactive); in the test on CAKI-1, > 100 µM (inactive); with PC-3 it was > 100 µM (inactive). Further, the GI50 with HL-60 was 22.2 µM (inactive); in the test with HCT-116, > 91.4 µM (inactive); in the test with K562 it was > 100 µM (inactive); in the test on SNB-19, > 100 µM (inactive); in the test on OVCAR-8, > 94.6 µM (inactive); with OVCAR-3, > 46.8 µM (inactive). The GI50 in the test with NCI-H522 is 43.5 µM (inactive); with ACHN, > 100 µM (inactive); in the test with LOX IMVI, 33.7 µM (inactive); with KM12, 32.5 µM (inactive); in the test on HOP-92, > 100 µM (inactive); in the test with UACC-62, > 100 µM (inactive). Further, the GI50 with SF-268 is 37.2 µM (inactive); in the test on HOP-62, > 84.7 µM (inactive).

As for `Nc1ncnc2c1ncn2C1OC(CO)=CC1O` (stereo unspecified), the GI50 with MOLT-4, in the test on UACC-257, with RPMI-8226, in the test on Malme-3M, in the test on CAKI-1 and with PC-3 was > 37.5 µM (inactive) in each case. Besides, the GI50 with HL-60, in the test on HCT-116, with K562, in the test with SNB-19, in the test with OVCAR-8 and in the test on OVCAR-3 was > 37.5 µM (inactive) in each case. In addition, the GI50 with NCI-H522, in the test with ACHN, with LOX IMVI, in the test on KM12, in the test with HOP-92 and in the test with UACC-62 was > 37.5 µM (inactive) in each case. The GI50 in the test with SF-268 and in the test on HOP-62 was > 37.5 µM (inactive) in each case.

For `CCOP(=O)(OCC)[C@H]1OC(C)(C)O[C@@H]1CO`, the GI50 in the test with MOLT-4, in the test with UACC-257, in the test on RPMI-8226, with Malme-3M, with CAKI-1 and in the test on PC-3 was > 100 µM (inactive) in each case. Moreover, the GI50 in the test with HL-60, in the test on HCT-116, in the test with SNB-19, with OVCAR-8, with OVCAR-3 and in the test on NCI-H522 was > 100 µM (inactive) in each case. The GI50 in the test with ACHN, with LOX IMVI, with KM12, in the test on HOP-92, with UACC-62 and with SF-268 was > 100 µM (inactive) throughout. The GI50 in the test on HOP-62 is > 100 µM (inactive).

For `O=C1NC2CCCCC2N=C1CC(=O)c1ccc(Br)cc1` (stereo unspecified), the GI50 in the test with MOLT-4 is 5.61 µM (inactive); in the test on UACC-257 it was > 100 µM (inactive); in the test on RPMI-8226, 2.83 µM (inactive); with Malme-3M, > 100 µM (inactive); in the test with CAKI-1 it was > 100 µM (inactive); with PC-3, 32.7 µM (inactive). In addition, the GI50 was > 100 µM (inactive) with HL-60; 66.2 µM (inactive) in the test with HCT-116; > 100 µM (inactive) with K562; > 100 µM (inactive) in the test on SNB-19; 4.19 µM (inactive) with OVCAR-8; > 100 µM (inactive) in the test on OVCAR-3. Also, the GI50 was 3.05 µM (inactive) in the test with NCI-H522; 49.1 µM (inactive) in the test on ACHN; 19.2 µM (inactive) with LOX IMVI; > 100 µM (inactive) in the test on KM12; 10.2 µM (inactive) in the test on HOP-92; 4.57 µM (inactive) in the test on UACC-62. The GI50 in the test with SF-268 is 28.6 µM (inactive); with HOP-62 it was 31.8 µM (inactive).

Regarding `COc1cc(C=O)ccc1O` [VANILLIN], the GI50 in the test with MOLT-4, in the test on UACC-257, in the test with RPMI-8226, with Malme-3M, in the test with CAKI-1 and in the test on PC-3 was > 100 µM (inactive) throughout. Moreover, the GI50 in the test with HL-60, in the test on HCT-116, with K562, in the test on SNB-19, in the test with OVCAR-8 and with OVCAR-3 was > 100 µM (inactive) throughout. The GI50 with NCI-H522, in the test on ACHN, in the test with LOX IMVI, in the test with KM12, in the test on HOP-92 and with SF-268 was > 100 µM (inactive) each time. Further, in the test on HOP-62, the GI50 is > 100 µM (inactive).
